Assays:
Assay in all cases: radiometric protein kinase assay (33PanQinase Activity Assay)
Assay type in all cases: biochemical
EPHB4 = biological target: T1, EPHB4 (Homo sapiens, UniProt P54760); settings: panel of 24 kinases, 1 μM ATP, read-out: Inhibition of Kinases IC50
T1 construct: made in house; host or cells: Sf9 insect cells (baculovirus)
T1 sequence (P54760 16-987): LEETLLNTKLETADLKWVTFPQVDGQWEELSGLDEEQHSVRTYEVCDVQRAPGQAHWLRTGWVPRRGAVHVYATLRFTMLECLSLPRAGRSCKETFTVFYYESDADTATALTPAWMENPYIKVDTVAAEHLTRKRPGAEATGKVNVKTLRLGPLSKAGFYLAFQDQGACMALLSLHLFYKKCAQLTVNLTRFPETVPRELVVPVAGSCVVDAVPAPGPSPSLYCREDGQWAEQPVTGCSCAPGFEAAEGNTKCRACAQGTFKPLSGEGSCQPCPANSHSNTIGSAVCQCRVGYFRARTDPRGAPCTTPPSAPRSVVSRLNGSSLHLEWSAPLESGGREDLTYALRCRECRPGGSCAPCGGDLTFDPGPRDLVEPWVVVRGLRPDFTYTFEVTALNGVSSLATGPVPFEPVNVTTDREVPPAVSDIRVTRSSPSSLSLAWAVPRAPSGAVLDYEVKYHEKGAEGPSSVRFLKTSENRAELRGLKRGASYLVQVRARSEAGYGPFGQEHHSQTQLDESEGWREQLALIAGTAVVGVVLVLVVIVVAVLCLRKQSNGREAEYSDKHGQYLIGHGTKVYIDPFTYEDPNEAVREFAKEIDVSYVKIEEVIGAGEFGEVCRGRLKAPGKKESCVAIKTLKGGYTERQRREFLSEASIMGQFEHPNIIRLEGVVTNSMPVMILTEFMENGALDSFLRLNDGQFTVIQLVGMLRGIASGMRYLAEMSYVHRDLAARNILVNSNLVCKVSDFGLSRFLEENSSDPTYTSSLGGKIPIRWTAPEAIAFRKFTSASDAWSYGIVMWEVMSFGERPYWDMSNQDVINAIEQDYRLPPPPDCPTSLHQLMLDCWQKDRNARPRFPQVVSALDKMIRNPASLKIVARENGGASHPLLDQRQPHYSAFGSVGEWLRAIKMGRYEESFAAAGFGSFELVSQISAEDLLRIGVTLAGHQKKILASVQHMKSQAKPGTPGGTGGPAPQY
Experimental: (§1) Radicicol A (1) and analogues 3 and 31 were tested for its inhibition in a panel of 24 kinase (AKT1, ARKS, Aurora-A, Aurora-B, B-RAF-VE, CDK2/CycA, CDK4/CycD1, CK2-α1, FAK, EPHB4, ERB2, EGF-R, IGF1-R, SRC, VEGF-R2, VEGF-R3, FLT3, INS-R, MET, PDGFR-β, PLK1, SAK, TIE2, COT) at 10 μM using the procedure described below.
(§2) All protein kinases were expressed in Sf9 insect cells as human recombinant GST-fusion proteins or His-tagged proteins by means of the baculovirus expression system. Kinases were purified by affinity chromatography using either GSH-agarose (Sigma) or Ni-NTH-agarose (Qiagen). The purity of each kinase was checked by SDS-PAGE/silver staining and the identity of each kinase was verified by western blot analysis with kinase specific antibodies or by mass spectroscopy.
A radiometric protein kinase assay (^33PanQinase® Activity Assay) was used for measuring the kinase activity of the 24 protein kinases. All kinase assays were performed in 96-well FIashPlates™ from Perkin Elmer (Boston, Mass., USA) in a 50 μl reaction volume. […]
(§3) The reaction cocktails were incubated at 30° C. for 80 minutes. […] Incorporation of ^33Pi was determined with a microplate scintillation counter (Microbeta Trilux, Wallac). […]

SRC = biological target: T2, SRC (Homo sapiens, UniProt P12931); settings: panel of 24 kinases, 1 μM ATP, read-out: Inhibition of Kinases IC50
T2 construct: made in house; host or cells: Sf9 insect cells (baculovirus)
T2 sequence (P12931 whole entry): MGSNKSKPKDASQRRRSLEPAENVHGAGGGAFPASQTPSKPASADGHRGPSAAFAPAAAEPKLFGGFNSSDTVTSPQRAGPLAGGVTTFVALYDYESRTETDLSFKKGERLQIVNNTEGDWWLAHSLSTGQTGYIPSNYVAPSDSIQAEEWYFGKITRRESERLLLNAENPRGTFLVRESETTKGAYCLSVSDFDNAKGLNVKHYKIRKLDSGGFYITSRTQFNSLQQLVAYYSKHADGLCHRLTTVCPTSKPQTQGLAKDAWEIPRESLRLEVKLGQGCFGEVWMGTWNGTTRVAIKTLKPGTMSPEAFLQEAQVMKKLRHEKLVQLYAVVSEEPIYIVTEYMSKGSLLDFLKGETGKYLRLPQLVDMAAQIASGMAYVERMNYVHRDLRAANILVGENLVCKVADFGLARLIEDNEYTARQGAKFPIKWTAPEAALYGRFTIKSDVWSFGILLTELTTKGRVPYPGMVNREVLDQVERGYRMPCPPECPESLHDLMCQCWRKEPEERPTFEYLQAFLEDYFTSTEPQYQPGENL
Text: as §2
(§4) A radiometric protein kinase assay (^33PanQinase® Activity Assay) was used for measuring the kinase activity of the 24 protein kinases. All kinase assays were performed in 96-well FIashPlates™ from Perkin Elmer (Boston, Mass., USA) in a 50 μl reaction volume. The reaction cocktail was pipetted in 4 steps in the following order: • 20 μl of assay buffer • 5 μl of ATP solution (in H2O) • 5 μl of test compound (in 10% DMSO) • 10 μl of substrate/10 μl of enzyme solution (premixed)
(§5) The assay for all enzymes contained 60 mM HEPES-NaOH, pH 7.5, 3 mM MgCl2, 3 mM MnCl2, 3 μM Na-orthovanadate, 1.2 mM DTT, 50 μg/ml PEG20000, 1 μM [γ-^33P]-ATP (approx. 5×10^05 cpm per well).
as §3

FLT3 = biological target: T3, FLT3 (Homo sapiens, UniProt P36888); settings: panel of 24 kinases, 1 μM ATP
T3 construct: made in house; host or cells: Sf9 insect cells (baculovirus)
T3 sequence (P36888 27-993): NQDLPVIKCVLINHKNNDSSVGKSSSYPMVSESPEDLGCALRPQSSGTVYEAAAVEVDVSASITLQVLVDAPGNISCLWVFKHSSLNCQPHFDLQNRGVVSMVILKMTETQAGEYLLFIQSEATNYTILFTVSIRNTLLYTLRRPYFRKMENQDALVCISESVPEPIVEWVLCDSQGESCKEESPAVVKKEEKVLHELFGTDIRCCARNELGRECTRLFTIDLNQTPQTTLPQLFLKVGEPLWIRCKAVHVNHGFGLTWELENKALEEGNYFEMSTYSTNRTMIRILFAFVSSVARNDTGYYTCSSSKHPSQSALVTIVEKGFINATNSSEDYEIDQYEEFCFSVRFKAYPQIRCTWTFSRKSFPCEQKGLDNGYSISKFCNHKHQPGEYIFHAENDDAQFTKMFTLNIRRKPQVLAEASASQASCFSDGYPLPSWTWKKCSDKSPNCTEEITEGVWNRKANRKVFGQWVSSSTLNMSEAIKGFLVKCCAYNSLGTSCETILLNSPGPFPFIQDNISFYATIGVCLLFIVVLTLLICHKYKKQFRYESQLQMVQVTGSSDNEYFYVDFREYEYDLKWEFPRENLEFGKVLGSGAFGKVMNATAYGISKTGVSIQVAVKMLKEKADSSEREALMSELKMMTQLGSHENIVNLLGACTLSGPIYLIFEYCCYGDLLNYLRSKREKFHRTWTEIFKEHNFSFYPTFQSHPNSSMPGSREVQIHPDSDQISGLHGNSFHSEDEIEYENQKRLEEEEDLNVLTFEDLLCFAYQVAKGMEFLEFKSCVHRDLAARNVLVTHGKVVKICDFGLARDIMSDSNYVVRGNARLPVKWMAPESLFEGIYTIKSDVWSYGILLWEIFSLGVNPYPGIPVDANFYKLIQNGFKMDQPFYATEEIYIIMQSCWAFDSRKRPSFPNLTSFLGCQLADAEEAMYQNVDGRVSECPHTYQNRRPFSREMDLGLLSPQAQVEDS
Experimental: as §1, §2, §4, §5
(§6) The reaction cocktails were incubated at 30° C. for 80 minutes. The reaction was stopped with 50 μl of 2% (v/v) H3PO4, plates were aspirated and washed two times with 200 μl of 0.9% (w/v) NaCl or 200 μl H2O. Incorporation of ^33Pi was determined with a microplate scintillation counter (Microbeta Trilux, Wallac). All assays were performed with a BeckmanCoulter/Sagian robotic system.
(§7) Using the same method described above, compound 31 was evaluated in a panel of 127 kinase enzymes.

VEGF-R3 = biological target: T4, VEGF-R3 (Homo sapiens, UniProt P35916); settings: panel of 24 kinases, 1 μM ATP
T4 construct: made in house; host or cells: Sf9 insect cells (baculovirus)
T4 sequence (P35916 25-1363): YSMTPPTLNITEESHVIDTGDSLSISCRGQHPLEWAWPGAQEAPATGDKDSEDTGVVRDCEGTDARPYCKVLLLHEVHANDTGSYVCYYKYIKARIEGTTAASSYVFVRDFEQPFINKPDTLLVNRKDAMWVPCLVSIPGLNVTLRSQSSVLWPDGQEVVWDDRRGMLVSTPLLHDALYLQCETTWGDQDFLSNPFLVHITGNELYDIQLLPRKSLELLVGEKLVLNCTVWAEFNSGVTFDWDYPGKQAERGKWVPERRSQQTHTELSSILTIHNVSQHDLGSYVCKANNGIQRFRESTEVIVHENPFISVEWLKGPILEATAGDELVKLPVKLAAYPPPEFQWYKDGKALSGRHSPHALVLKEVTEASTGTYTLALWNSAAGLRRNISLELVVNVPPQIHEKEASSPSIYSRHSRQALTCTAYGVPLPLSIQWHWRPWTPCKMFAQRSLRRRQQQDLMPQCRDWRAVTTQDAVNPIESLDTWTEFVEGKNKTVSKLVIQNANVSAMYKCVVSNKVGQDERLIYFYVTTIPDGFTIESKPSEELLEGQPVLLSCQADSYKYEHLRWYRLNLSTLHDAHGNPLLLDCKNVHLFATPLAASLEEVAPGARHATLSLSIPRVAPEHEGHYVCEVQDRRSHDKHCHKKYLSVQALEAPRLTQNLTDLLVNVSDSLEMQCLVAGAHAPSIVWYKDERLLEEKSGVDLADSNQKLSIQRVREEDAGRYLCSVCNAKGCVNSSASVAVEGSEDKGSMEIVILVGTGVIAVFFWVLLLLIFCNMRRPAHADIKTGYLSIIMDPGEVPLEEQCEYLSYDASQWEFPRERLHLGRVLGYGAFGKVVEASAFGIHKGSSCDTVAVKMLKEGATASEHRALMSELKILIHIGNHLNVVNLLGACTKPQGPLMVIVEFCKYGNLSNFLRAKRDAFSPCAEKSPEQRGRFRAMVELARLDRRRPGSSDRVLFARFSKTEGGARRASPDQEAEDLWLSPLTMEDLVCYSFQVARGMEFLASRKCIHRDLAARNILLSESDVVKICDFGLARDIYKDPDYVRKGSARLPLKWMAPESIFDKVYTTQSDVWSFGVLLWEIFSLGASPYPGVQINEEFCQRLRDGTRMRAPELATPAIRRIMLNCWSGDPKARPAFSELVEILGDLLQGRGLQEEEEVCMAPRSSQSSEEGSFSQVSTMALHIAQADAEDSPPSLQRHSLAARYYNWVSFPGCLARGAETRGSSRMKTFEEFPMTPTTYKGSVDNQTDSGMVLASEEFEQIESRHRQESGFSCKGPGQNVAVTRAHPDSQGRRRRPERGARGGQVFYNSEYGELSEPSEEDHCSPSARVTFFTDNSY
Experimental: as §1, §2, §4, §5, §6, §7

PDGFR-beta = biological target: T5, PDGFR-beta (Homo sapiens, UniProt P09619); settings: PDGFR-beta, panel of 24 kinases, 1 μM ATP
T5 construct: made in house; host or cells: Sf9 insect cells (baculovirus)
T5 sequence (P09619 33-1106): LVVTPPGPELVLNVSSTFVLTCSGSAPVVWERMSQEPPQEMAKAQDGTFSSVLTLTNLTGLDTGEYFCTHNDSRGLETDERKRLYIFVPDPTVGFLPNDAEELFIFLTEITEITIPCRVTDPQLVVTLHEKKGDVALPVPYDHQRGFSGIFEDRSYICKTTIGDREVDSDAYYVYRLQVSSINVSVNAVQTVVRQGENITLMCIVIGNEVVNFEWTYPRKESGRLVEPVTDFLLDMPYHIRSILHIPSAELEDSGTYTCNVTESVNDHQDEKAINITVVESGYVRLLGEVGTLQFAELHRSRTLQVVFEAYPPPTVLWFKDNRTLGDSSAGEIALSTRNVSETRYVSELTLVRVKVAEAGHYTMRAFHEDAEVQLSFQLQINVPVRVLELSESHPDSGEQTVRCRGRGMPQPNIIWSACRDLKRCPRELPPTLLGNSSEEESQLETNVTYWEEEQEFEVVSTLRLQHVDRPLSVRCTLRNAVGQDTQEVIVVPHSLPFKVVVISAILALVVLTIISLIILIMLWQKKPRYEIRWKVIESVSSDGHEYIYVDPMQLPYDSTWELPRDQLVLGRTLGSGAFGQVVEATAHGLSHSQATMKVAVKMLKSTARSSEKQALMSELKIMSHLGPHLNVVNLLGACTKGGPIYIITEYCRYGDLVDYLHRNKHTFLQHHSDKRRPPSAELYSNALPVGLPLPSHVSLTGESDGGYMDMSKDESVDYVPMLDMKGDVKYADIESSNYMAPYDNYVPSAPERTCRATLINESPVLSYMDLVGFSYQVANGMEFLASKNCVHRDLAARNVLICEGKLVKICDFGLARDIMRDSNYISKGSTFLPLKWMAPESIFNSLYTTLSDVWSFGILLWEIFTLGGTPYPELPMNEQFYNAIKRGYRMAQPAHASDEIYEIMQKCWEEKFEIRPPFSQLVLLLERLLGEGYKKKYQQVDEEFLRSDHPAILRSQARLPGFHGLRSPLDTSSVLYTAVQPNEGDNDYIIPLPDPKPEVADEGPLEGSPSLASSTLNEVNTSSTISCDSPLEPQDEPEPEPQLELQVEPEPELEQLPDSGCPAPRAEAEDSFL
Text: as §2, §4, §5, §6, §7

VEGF-R2 = VEGF-R2 (Homo sapiens, UniProt P35968); set-up: made in house; host or cells: Sf9 insect cells (baculovirus); settings: panel of 24 kinases, 1 μM ATP
Chain of VEGF-R2 (P35968 20-1356): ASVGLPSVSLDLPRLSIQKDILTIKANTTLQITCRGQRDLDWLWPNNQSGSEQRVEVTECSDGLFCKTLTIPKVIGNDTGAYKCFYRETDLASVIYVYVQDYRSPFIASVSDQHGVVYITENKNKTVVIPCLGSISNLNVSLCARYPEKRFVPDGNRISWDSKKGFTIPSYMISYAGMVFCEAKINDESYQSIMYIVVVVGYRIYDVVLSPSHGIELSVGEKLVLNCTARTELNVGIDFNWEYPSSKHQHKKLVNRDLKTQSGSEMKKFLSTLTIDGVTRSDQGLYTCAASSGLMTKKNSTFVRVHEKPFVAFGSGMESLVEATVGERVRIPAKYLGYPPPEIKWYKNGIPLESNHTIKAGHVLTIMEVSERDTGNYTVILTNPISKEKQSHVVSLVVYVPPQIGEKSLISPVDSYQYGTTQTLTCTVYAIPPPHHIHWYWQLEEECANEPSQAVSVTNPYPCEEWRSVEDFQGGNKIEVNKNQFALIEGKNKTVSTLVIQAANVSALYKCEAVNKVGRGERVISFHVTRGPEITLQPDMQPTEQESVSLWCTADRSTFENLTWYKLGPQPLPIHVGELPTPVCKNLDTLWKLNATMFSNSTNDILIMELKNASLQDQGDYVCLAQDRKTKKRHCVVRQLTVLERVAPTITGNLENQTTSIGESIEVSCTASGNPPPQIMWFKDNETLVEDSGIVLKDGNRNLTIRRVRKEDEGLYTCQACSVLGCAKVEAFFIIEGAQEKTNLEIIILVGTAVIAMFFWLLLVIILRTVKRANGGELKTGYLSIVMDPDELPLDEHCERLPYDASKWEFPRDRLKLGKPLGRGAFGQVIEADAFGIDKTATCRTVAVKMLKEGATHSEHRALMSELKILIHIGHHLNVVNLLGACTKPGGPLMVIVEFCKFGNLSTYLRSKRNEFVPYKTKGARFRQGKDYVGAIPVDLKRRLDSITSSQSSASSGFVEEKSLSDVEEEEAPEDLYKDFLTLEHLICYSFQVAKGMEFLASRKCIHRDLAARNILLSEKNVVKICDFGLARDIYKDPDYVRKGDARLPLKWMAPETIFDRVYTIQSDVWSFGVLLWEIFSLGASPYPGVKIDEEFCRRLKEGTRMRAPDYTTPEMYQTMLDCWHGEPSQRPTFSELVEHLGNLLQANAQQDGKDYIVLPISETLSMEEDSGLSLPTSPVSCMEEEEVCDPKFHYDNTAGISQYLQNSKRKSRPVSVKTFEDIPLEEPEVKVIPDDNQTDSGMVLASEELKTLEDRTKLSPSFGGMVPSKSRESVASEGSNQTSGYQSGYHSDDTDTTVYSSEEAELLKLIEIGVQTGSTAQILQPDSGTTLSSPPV
Experimental: as §1, §2, §4, §5, §6, §7

[1] = read-out: Inhibition of Kinases IC50

IC50 (EPHB4): 9100 nM
IC50 (SRC): 9600 nM
Inhibition of Kinases IC50 (FLT3; listed as Radicicol A): potent inhibitory activity (low nM)
Inhibition of Kinases IC50 (FLT3; listed as radicicol A): potent inhibitory activity
IC50 (FLT3; [1]): 110 nM
Inhibition of Kinases IC50 (VEGF-R3; listed as Radicicol A): potent inhibitory activity (low nM)
Inhibition of Kinases IC50 (VEGF-R3; listed as radicicol A): potent inhibitory activity
IC50 (VEGF-R3; [1]): 66 nM
Inhibition of Kinases IC50 (PDGFR-beta; listed as Radicicol A): potent inhibitory activity (low nM)
Inhibition of Kinases IC50 (PDGFR-beta; listed as radicicol A): potent inhibitory activity
IC50 (PDGFR-beta; [1]): 210 nM
Inhibition of Kinases IC50 (VEGF-R2; listed as Radicicol A): potent inhibitory activity (low nM)
Inhibition of Kinases IC50 (VEGF-R2; listed as radicicol A): potent inhibitory activity
IC50 (VEGF-R2; [1]): 26 nM
SMILES: COc1cc(O)c2c(c1OC)/C=C/C[C@H](O)[C@H](O)C(=O)/C=C\C[C@H](C)OC2=O [Compound 1, Radicicol A]
